Measurements taken from patent US7528106B2, “Compositions and methods for treatment of neovascular diseases” (The Scripps Research Institute, priority 2004, dated 2009).

System: deep retinal vascular network formation in neonatal Balb/C mice
Test: Neonatal mouse retinal angiogenesis model
Type: in vivo
Text: Description of the Model. Immediately after birth (postnatal day zero; “P0”), retinal vasculature is virtually absent in the mouse. By four weeks after birth (P28) the retina has attained an adult pattern of retinal vessels coincident with the onset of vision. Physiological neovascularization of the retina occurs during this period via a stereotypical, biphasic developmental pattern of angiogenesis. During the primary phase of retinal vascular development, spoke-like peripapillary vessels grow radially from the central retinal artery and vein, becoming progressively interconnected by a capillary plexus that forms between them. This “inner retinal plexus” grows in area, volume and complexity, centrifugally, as a monolayer within the nerve fiber layer during the first seven to ten days following birth.
The second phase of retinal vessel formation begins between postnatal days 7 (P7) and 10 (P10) when collateral branches sprout from capillaries of the superficial plexus and penetrate into the retina where their tips branch and anastamose laterally to form a planar “deep vascular plexus”. While the deep vascular plexus is in place by P14, it undergoes extensive remodeling from P14 to P21. It is of interest to note that the formation of these vascular networks in the neonatal mouse are strikingly similar to the events occurring in the third trimester human fetus.
Advantages and Quantification of the Model. The reproducibility of the murine retinal development process and its easy accessibility in neonatal animals provide an opportunity to assess the efficacy of antiangiogenic compounds in a physiologically relevant model of angiogenesis. Additional advantages of the neonatal mouse model are the ability to qualitatively and quantitatively evaluate the angiostatic effect of putative antagonists of angiogenesis. Angiostatic activity was evaluated based upon the degree of angiogenesis in the deep, outer retinal vascular layer (secondary layer) that develops between P8 and P12. The appearance of the inner blood vessel network (primary layer) was evaluated for normal development and signs of toxicity.
Preparation of Compositions. Peptidomimetic integrin signaling inhibitor Compound (1) is solubilized in PBS at a concentration of about 20 mg/ml in PBS (1× concentration). T2-TrpRS is solubilized in PBS at a concentration of about 0.5 mg/ml (1× concentration). VEGF aptamer (pegaptanib sodium; Compound (2)) is solubilized in PBS at a concentration of about 2 mg/ml (1× concentration) to achieve an injection of approximately 1 μg/eye at 1× concentration. For all combination assays the compounds were prepared at 2 or 3 times the 1× concentration of each material and then combined to produce a final solution containing each individual compound at the same concentration as was used alone (e.g., 1×, 0.5×, 0.25× or 0.1×, as the case may be). For all assays, a single injection of 0.5 μl of PBS solutions of the drugs was administered intravitreally regardless of the number of compounds being injected. As used herein, the term “0.1×” refers to one tenth of the 1× concentration of a given material, “0.25×” refers to one quarter of the 1× concentration of a given material, “0.5×” refers to one half of the 1× concentration of a given material, and so forth for similar designations.
An in vivo angiogenesis assay in the neonatal mouse (Balb/C, The Jackson Laboratory, Bar Harbor, Me.) was used to evaluate the angiostatic activity of integrin signaling inhibitor Compound (1), T2-TrpRS, and VEGF aptamer Compound (2). Intravitreous injection and retina isolation was performed with a dissecting microscope (SMZ 645, Nikon, Japan). […] The samples (0.5 μl) were injected with a Hamilton syringe fitted with a 32-gauge needle (Hamilton Company, Reno, Nev.). The injection was made between the equator and the corneal limbus. During injection, the location of the needle tip was monitored by direct visualization to determine that it was in the vitreal cavity. […]

[1] = Ex 1, 0.5× (1×=2 mg/ml), intravitreal P8, read P12
[2] = Ex 2, 0.1× of each (1×: T2-TrpRS 0.5, Comp. (2) 2 mg/ml), intravitreal P4, read P12
[3] = Ex 3, 1× of each (T2-TrpRS 0.5, Comp. (2) 2 mg/ml), intravitreal P4, read P12
[4] = Ex 4, 0.5× (1×=2 mg/ml), intravitreal P4, read P12
[5] = Ex 6, 1× of each (T2-TrpRS 0.5, Comp. (2) 2 mg/ml), intravitreal P4, read P12
[6] = Ex 7, 1× (T2-TrpRS 0.5, Comp. (2) 2 mg/ml), intravitreal P4, read P12
[7] = Ex 8, 0.25× (1×=2 mg/ml), intravitreal P4, read P12
[8] = Ex 9, 1× of each (Comp. (1) 20, Comp. (2) 2, T2-TrpRS 0.5 mg/ml), intravitreal P4, read P12
[9] = Table 12, composite data from the Examples, 1× (Compound (2) 0.5× to 1×)
[10] = Table 13A, 1-2 μg per eye, intravitreal P7, read P12
[11] = Table 13C low dosing, 0.1x (integrin ant. 1.0 μg, VEGF apt. 0.20 μg, T2-TrpRS 0.025 μg)

pegaptanib sodium [Compound (2)]
inhibition of neovascularization (0.1× concentrations (1 μg/eye integrin antagonist, 0.2 μg/eye VEGF aptamer, 0.025 μg/eye T2-TrpRS)): negligible | % of eyes with 0-10% inhibition of deep vascular layer [1]: 20% | % of eyes with 10-25% inhibition of deep vascular layer [1]: 20% | % of eyes with 25-50% inhibition of deep vascular layer [1]: 20% | % of eyes with 50-75% inhibition of deep vascular layer [1]: 20% | % of eyes with 75-100% inhibition of deep vascular layer [1]: 40% | % of eyes with 0-10% inhibition of deep vascular layer [2]: 87.5% | % of eyes with 10-25% inhibition of deep vascular layer [2]: 12.5% | % of eyes with 25-50% inhibition of deep vascular layer [2]: 0% | % of eyes with 50-75% inhibition of deep vascular layer [2]: 0% | % of eyes with 75-100% inhibition of deep vascular layer [2]: 0% | % of eyes with 100% inhibition of deep vascular layer [2]: 0% | % of eyes with >95% inhibition of deep vascular layer [2]: 0% | % of eyes with 0-10% inhibition of deep vascular layer [3]: 37.5% | % of eyes with 10-25% inhibition of deep vascular layer [3]: 12.5% | % of eyes with 25-50% inhibition of deep vascular layer [3]: 12.5% | % of eyes with 50-75% inhibition of deep vascular layer [3]: 12.5% | % of eyes with 75-100% inhibition of deep vascular layer [3]: 25% | % of eyes with 100% inhibition of deep vascular layer [3]: 0% | % of eyes with >95% inhibition of deep vascular layer [3]: 0% | % of eyes with 0-10% inhibition of deep vascular layer [4]: 60% | % of eyes with 10-25% inhibition of deep vascular layer [4]: 30% | % of eyes with 25-50% inhibition of deep vascular layer [4]: 0% | % of eyes with 50-75% inhibition of deep vascular layer [4]: 0% | % of eyes with 75-100% inhibition of deep vascular layer [4]: 10% | % of eyes with 100% inhibition of deep vascular layer [4]: 0% | % of eyes with >95% inhibition of deep vascular layer [4]: 0% | % of eyes with 0-10% inhibition of deep vascular layer [5]: 37.5% | % of eyes with 10-25% inhibition of deep vascular layer [5]: 25% | % of eyes with 25-50% inhibition of deep vascular layer [5]: 12.5% | % of eyes with 50-75% inhibition of deep vascular layer [5]: 25% | % of eyes with 75-100% inhibition of deep vascular layer [5]: 0% | % of eyes with 100% inhibition of deep vascular layer [5]: 0% | % of eyes with >95% inhibition of deep vascular layer [5]: 0% | % of eyes with 0-10% inhibition of deep vascular layer [6]: 25% | % of eyes with 10-25% inhibition of deep vascular layer [6]: 25% | % of eyes with 25-50% inhibition of deep vascular layer [6]: 0% | % of eyes with 50-75% inhibition of deep vascular layer [6]: 12.5% | % of eyes with 75-100% inhibition of deep vascular layer [6]: 37.5% | % of eyes with 100% inhibition of deep vascular layer [6]: 0% | % of eyes with >95% inhibition of deep vascular layer [6]: 0% | % of eyes with 0-10% inhibition of deep vascular layer [7]: 54.5% | % of eyes with 10-25% inhibition of deep vascular layer [7]: 36.4% | % of eyes with 25-50% inhibition of deep vascular layer [7]: 0% | % of eyes with 50-75% inhibition of deep vascular layer [7]: 0% | % of eyes with 75-100% inhibition of deep vascular layer [7]: 9.1% | % of eyes with 100% inhibition of deep vascular layer [7]: 0% | % of eyes with >95% inhibition of deep vascular layer [7]: 0% | % of eyes with 0-10% inhibition of deep vascular layer [8]: 25% | % of eyes with 10-25% inhibition of deep vascular layer [8]: 0% | % of eyes with 25-50% inhibition of deep vascular layer [8]: 12.5% | % of eyes with 50-75% inhibition of deep vascular layer [8]: 12.5% | % of eyes with 75-100% inhibition of deep vascular layer [8]: 50% | % of eyes with 100% inhibition of deep vascular layer [8]: 12.5% | % of eyes with >95% inhibition of deep vascular layer [8]: 25% | % of mice with 0-10% inhibition of deep vascular layer [9]: 39.1% | % of mice with 10-25% inhibition of deep vascular layer [9]: 20% | % of mice with 25-50% inhibition of deep vascular layer [9]: 7.6% | % of mice with 50-75% inhibition of deep vascular layer [9]: 11.9% | % of mice with 75-100% inhibition of deep vascular layer [9]: 21.4% | % of mice with 100% inhibition of deep vascular layer [9]: 2.4% | % of mice with >95% inhibition of deep vascular layer [9]: 4.7% | Percentage of retinas with 0-10% neovascular inhibition [10]: 39.1% | Percentage of retinas with 10-25% neovascular inhibition [10]: 20.0% | Percentage of retinas with 25-50% neovascular inhibition [10]: 7.6% | Percentage of retinas with 50-75% neovascular inhibition [10]: 11.9% | Percentage of retinas with 100% neovascular inhibition [10]: 2.4% | Percentage of retinas with >75% neovascular inhibition [10]: 21.4% | Percentage of retinas with >90% neovascular inhibition [10]: 4.7% | Percentage of retinas with 0-10% neovascular inhibition [11]: 75% | Percentage of retinas with 10-25% neovascular inhibition [11]: 25% | Percentage of retinas with 25-50% neovascular inhibition [11]: 0% | Percentage of retinas with 50-75% neovascular inhibition [11]: 0% | Percentage of retinas with 100% neovascular inhibition [11]: 0% | Percentage of retinas with >75% neovascular inhibition [11]: 0% | Percentage of retinas with >90% neovascular inhibition [11]: 0% | retinas that exhibited over 75% inhibition (monotherapy at optimal dose): 21% | retinas unaffected by injection (monotherapy at the maximum individual dose): around 35%
